# Where “and” joins values, the source holds several entries; their conditions need not be identical. Equal values may be shown once. Read-outs that look alike come from different tables or passages of the source.
# Key:
# SARS-CoV-2 = test: Plaque reduction assay for antiviral EC50, Vero E6 cells; assay type: cell-based; conditions: Severe acute respiratory syndrome coronavirus 2, Vero C1008
# Method: Plaque reduction assay was performed to plot the 50% antiviral effective dose (EC50). Vero E6 cells were used for SARS-CoV-2 and MDCK cells for influenza A virus. Briefly, cells were seeded at 4×10^5 cells/well in 12-well tissue culture plates on the day before carrying out the assay. After 24 h of incubation, 50 p.f.u. of SARS-CoV-2 or H1N1 virus were added to the cell monolayer with or without the addition of drug compounds and the plates were further incubated for 1 h at 37° C. in 5% CO2 before removal of unbound viral particles by aspiration of the media and washing once with DMEM. Monolayers were then overlaid with media containing 1% low melting agarose (Cambrex Corporation, New Jersey, USA) in DMEM and appropriate concentrations of individual compound, inverted and incubated as above for another 72 h. The wells were then fixed with 10% formaldehyde (BDH, Merck, Darmstadt, Germany) overnight. After removal of the agarose plugs, the monolayers were stained with 0.7% crystal violet (BDH, Merck) and the plaques counted. The percentage of plaque inhibition relative to the control (i.e., without the addition of compound) wells were determined for each drug compound concentration. The EC50 was calculated using Sigma plot (SPSS) in an Excel add-in ED50V10. The plaque reduction assay experiments were performed in triplicate and repeated twice for confirmation.
# [1] = plasma, i.p. drug suspension, 5 mg/kg tamibarotene, n=5
# H1N1 virus [2] = test: In vivo therapeutic effect against H1N1 virus, intranasal treatment; parameters: species or system BALB/c mice; conditions: for Viral RNA load in lung compared with PBS group: 3 d.p.i., zanamivir 2 mg/kg i.n., one-way ANOVA; for Viral RNA load in lung compared with PBS group / Survival rate: tamibarotene 0.1 mg/kg; for Survival rate: 14 d.p.i., five i.n. doses from 4 h post 10 p.f.u. H1N1, zanamivir 2 mg/kg, n=7; for Survival rate compared with PBS group: Log-rank test, p<0.01
# Method: To evaluate the therapeutic effect of tamibarotene formulation against H1N1 virus, BALB/c mice were i.n. inoculated with 20 μL of virus suspension containing 10 p.f.u. of H1N1 virus under anaesthesia. At 4 h post virus challenge, the first therapeutic dose was initiated and the mice were divided into four groups (11 mice per group) to receive 20 μL of each treatment via i.n. administration: (i) zanamivir solution (2 mg/mL); (ii) unformulated tamibarotene suspension (100 μg/mL); (iii) reconstituted A2-TFN solution (100 μg/mL); and (iv) PBS (as negative control). The dose of tamibarotene was 0.1 mg/kg, and the dose of zanamivir was 2 mg/kg. On day 1 and day 2 post-infection, the therapeutic doses were administered twice a day. On 3 d.p.i., four mice in each group were euthanatized randomly and the lung tissues were harvested for viral load assay by qRT-PCR method. Animal survival, clinical symptoms and body weight were monitored for 14 days or until the humane endpoint (body weight loss more than 20%) was reached. This experiment was conducted in two independent experiments (n=11 in each group).
# influenza A H1N1 virus = test: In vivo prophylactic protection against H1N1 virus; parameters: species or system BALB/c mice; conditions: for Lung histopathology (H&E) / Viral PA protein expression in lung (immunofluorescence): 3 d.p.i., data not shown; for Viral RNA load in lung tissues compared with PBS: day 3 post-challenge, 5 mg/kg i.t., one-way ANOVA; for Survival rate compared with PBS group: log-rank test, p<0.01
# Method: BALB/c mice were used to investigate the in vivo activity of A2-TFN formulation against influenza A H1N1 virus. The mice were evaluated in divided into four groups (nine mice per group). Prior to virus inoculation, i.t. administration was performed under anesthesia in each group: (i) 20 μL of zanamivir solution (5 mg/mL); (ii) 50 μL of unformulated tamibarotene suspension (2 mg/mL); and (iii) 1 mg of A2-TFN powder. The dose of zanamivir or tamibarotene was 5 mg/kg per mouse. In the fourth group of mice, 50 μL of PBS was i.t. administered as negative control. At 2 h post administration, all the mice were i.n. inoculated with 20 μL of virus suspension containing 100 p.f.u. of HIN virus under anesthesia. Four mice in each group were euthanatized randomly on 3 d.p.i. and the lung tissues were harvested for viral load assay by qRT-PCR method. Animal survival, clinical symptoms and body weight were monitored for 14 days or until the humane endpoint (body weight loss more than 20%) was reached. The lung tissue histopathology of infected mice was examined by hematoxylin and eosin (H&E) and immunofluorescence staining. This experiment was conducted in two independent experiments (n=9 in each group).
# in vivo = conditions: BALB/c, mouse, ip, 5 mg/kg; for AUC(0-t): AUC0-8 h; for AUC(0-inf): AUC0-∞—D; for MRT last: MRT0-8 h
# [3] = Dissolution study of fine particle dose in simulated lung fluid; assay type: physicochemical
# Method: The dissolution profile of A2-TFN powders was investigated using a jacketed beaker which contained 100 mL of simulated lung fluid as dissolution medium. The preparation of simulated lung fluid was according to Marques et al. (SLF3 in the article). The temperature was maintained at 37° C. and the medium was stirred at 75 rpm with a magnetic bar. As fine particle dose (FPD, aerodynamic diameter<5 μm) is considered to be the fraction of powder that can deposit in the deep lung region, the FPD of A2-TFN formulation was collected by a Fast Screening Impactor (FSI, Copley Scientific, UK) coupled with Breezhaler® as described before for dissolution study. Approximately 8.5±0.5 mg of A2-TFN powder was dispersed by FSI to separate an FPD (which contained an estimated amount of 0.5 mg of tamibarotene). The powders were placed on a glass fiber filter paper which was then transferred into the jacketed beaker. At pre-determined time intervals, 1 mL of dissolution medium was withdrawn and filtered through 0.45-μm membrane filter. Equal volume of pre-warmed fresh medium was refilled immediately. The unformulated tamibarotene powder was included as control for comparison. The concentration of tamibarotene was quantified by HPLC as described above. The dissolution study was carried out in triplicate.
# H1N1 virus [4] = test: Plaque reduction assay for antiviral EC50, MDCK cells; assay type: cell-based; conditions: Influenza A virus
# MERS-CoV = conditions: from Yuan, et al., Nature Communications 2019, 10, 120; cited from earlier work
# [5] = Toxicity study in uninfected mice after intratracheal powder; assay type: in vivo, BALB/c mice; conditions: 1 mg powder intratracheally
# Method: HPBCD only powder was prepared according to the same protocol as A2-TFN but without the addition of tamibarotene and tert-butyl alcohol. One milligram of A2-TFN powder or HPBCD powder, or 50 μL of phosphate buffer saline (PBS) was intratracheally administered in healthy BALB/c mice under anesthesia.
# [6] = lung, i.p. drug suspension, 5 mg/kg tamibarotene
# [7] = plasma, i.p. drug suspension, 5 mg/kg tamibarotene
compound,measurement,setting,value
CC1(C)CCC(C)(C)c2cc(NC(=O)c3ccc(C(=O)O)cc3)ccc21 [tamibarotene],EC50,SARS-CoV-2,5800 ± 1200 nM
same,Cmax,[1],14.2 ± 0.9 µM
same,Viral RNA load in lung compared with PBS group,H1N1 virus [2],significantly lower
same,Survival rate,H1N1 virus [2],71%
same,Survival rate compared with PBS group,H1N1 virus [2],significantly higher
same,Lung histopathology (H&E),influenza A H1N1 virus,Severe alveolar damage and interstitial inflammatory infiltration
same,Viral PA protein expression in lung (immunofluorescence),influenza A H1N1 virus,diminished but remained noticeable in bronchiolar epithelial cells
same,Viral RNA load in lung tissues compared with PBS,influenza A H1N1 virus,significantly lower
same,Survival rate compared with PBS group,influenza A H1N1 virus,significantly higher
same,Time by which all mice reached humane endpoint,influenza A H1N1 virus; single i.t. dose 5 mg/kg 2 h before 100 p.f.u. H1N1,< 9 d.p.i.
same,Tmax,in vivo,30 min
same,AUC(0-t),in vivo; [6],2400 ± 300 ng·h/mL
same,AUC(0-t),in vivo; [7],6000 ± 500 ng·h/mL
same,AUC(0-inf),in vivo; [6],500 ± 60 ng·h/mL
same,AUC(0-inf),in vivo; [7],1500 ± 200 ng·h/mL
same,Cmax,"in vivo; Cmax, lung, i.p. drug suspension, 5 mg/kg tamibarotene, n=5",7.4 µM and 2600 ng/mL
same,MRT last,in vivo; [6],36 ± 12 min
same,MRT last,in vivo; [7],90 ± 12 min
same,half-life,"in vivo; T1/2, lung, i.p. drug suspension, 5 mg/kg tamibarotene",30 ± 4.8 min
same,half-life,"in vivo; T1/2, plasma, i.p. drug suspension, 5 mg/kg tamibarotene",108 ± 24 min
same,Cumulative dissolved drug after 24 h compared with A2-TFN powder,"[3]; Student's t-test, p<0.01",significantly lower
same,Drug dissolved,"[3]; within the first hour, 37° C.",approximately 20%
same,EC50,H1N1 virus [4],1680 ± 980 nM
same,EC50,MERS-CoV,320 ± 26 nM
CC(=O)N[C@H]1[C@H]([C@H](O)[C@H](O)CO)OC(C(=O)O)=C[C@@H]1N=C(N)N [zanamivir],Viral RNA load in lung compared with PBS group,H1N1 virus [2],not been significantly different
same,Survival rate,H1N1 virus [2],86%
same,Survival rate compared with PBS group,H1N1 virus [2],significantly higher
same,Lung histopathology (H&E),influenza A H1N1 virus,alleviated
same,Viral PA protein expression in lung (immunofluorescence),influenza A H1N1 virus,diminished but remained noticeable in bronchiolar epithelial cells
same,Survival rate,"influenza A H1N1 virus; 14 d.p.i., single i.t. dose 5 mg/kg 2 h before 100 p.f.u. H1N1, n=5",60%
same,Viral RNA load in lung tissues compared with PBS,influenza A H1N1 virus,no significant difference
same,Survival rate compared with PBS group,influenza A H1N1 virus,significantly higher
2-hydroxypropyl-β-cyclodextrin [HPβCD],Body weight of uninfected mice,[5],recovered more rapidly than A2-TFN group
same,Toxicity in lung histopathology of uninfected mice,[5]; data not shown,No marked toxicity
